Test results taken from patent publication US11767310B2, “Nicotinamide RIPK1 inhibitors” (AbbVie Inc., priority 2021, dated 2023).
Like-named read-outs stand apart in the source and are kept apart here.

How the values were obtained:
Experiment in all cases: Kinase binding screen
[1] = target: ABL1(H396P)-nonphosphorylated (Homo sapiens (Human), UniProt P00519, H396P); settings: read-out: Percent Control at 100 nM Compound Concentration
[2] = target: ACVR1B (Homo sapiens (Human), UniProt P36896); settings: read-out: Percent Control at 100 nM Compound Concentration
ACVR1B, sequence (P36896 24-505): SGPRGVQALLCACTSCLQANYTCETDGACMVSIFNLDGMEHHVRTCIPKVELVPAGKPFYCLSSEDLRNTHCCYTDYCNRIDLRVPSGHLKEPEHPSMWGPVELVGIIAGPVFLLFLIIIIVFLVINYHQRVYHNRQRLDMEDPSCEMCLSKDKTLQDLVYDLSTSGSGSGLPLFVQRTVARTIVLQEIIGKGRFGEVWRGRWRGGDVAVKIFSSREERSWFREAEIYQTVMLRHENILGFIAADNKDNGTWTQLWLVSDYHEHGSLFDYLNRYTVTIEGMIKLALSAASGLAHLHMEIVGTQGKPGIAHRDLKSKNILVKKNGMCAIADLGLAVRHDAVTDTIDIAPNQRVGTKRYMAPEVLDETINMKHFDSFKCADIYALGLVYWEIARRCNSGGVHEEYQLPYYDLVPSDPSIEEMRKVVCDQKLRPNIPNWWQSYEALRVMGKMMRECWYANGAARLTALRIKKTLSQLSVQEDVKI

[3] = target: CAMKK1 (Homo sapiens (Human), UniProt Q8N5S9); settings: read-out: Percent Control at 100 nM Compound Concentration
CAMKK1, sequence (Q8N5S9 whole entry): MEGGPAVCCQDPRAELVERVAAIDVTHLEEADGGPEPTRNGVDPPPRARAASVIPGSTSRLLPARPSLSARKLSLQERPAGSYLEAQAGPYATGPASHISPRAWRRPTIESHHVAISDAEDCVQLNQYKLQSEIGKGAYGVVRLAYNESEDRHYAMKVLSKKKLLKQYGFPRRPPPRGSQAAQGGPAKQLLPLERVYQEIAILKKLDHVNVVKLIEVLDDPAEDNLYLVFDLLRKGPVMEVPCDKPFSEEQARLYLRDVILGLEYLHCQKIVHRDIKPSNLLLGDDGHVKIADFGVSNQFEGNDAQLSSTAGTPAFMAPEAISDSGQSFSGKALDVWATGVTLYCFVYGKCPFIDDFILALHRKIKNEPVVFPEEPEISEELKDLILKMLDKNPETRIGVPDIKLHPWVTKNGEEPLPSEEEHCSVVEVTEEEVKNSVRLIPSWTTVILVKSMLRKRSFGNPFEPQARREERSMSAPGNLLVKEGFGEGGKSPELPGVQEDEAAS

[4] = target: CAMKK2 (Homo sapiens (Human), UniProt Q96RR4); settings: read-out: Percent Control at 100 nM Compound Concentration
CAMKK2, sequence (Q96RR4 whole entry): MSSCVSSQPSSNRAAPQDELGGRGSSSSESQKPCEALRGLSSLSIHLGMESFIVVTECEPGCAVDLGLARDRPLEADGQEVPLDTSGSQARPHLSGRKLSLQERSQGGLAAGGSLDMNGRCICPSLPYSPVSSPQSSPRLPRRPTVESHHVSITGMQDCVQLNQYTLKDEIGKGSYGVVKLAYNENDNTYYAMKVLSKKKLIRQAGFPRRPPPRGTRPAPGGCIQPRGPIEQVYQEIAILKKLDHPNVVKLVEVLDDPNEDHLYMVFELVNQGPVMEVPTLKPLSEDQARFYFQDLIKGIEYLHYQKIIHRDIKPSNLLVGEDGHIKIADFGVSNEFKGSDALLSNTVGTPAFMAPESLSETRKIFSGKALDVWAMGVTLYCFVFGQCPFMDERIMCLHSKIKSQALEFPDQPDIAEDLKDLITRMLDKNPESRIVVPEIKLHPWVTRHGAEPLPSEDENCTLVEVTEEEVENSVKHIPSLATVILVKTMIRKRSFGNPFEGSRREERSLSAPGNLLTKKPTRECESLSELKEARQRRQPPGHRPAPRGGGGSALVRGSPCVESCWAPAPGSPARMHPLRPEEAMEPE

[5] = target: CDK7 (Homo sapiens (Human), UniProt P50613); settings: read-out: Percent Control at 100 nM Compound Concentration
[6] = target: FGR (Homo sapiens (Human), UniProt P09769); settings: read-out: Percent Control at 100 nM Compound Concentration
[7] = system: FLT3(ITD,F691L); set-up: species or system human
[8] = target: KIT(A829P) (Homo sapiens (Human), UniProt P10721, A829P); settings: read-out: Percent Control at 100 nM Compound Concentration
[9] = target: MAP3K4 (Homo sapiens (Human), UniProt Q9Y6R4); settings: read-out: Percent Control at 100 nM Compound Concentration
[10] = target: MLCK (Homo sapiens (Human), UniProt Q32MK0); settings: read-out: Percent Control at 100 nM Compound Concentration
[11] = target: PAK6 (Homo sapiens (Human), UniProt Q9NQU5); settings: read-out: Percent Control at 100 nM Compound Concentration
[12] = target: PCTK3 (Homo sapiens (Human), UniProt Q07002); settings: read-out: Percent Control at 100 nM Compound Concentration
[13] = target: CDC2L5 (Homo sapiens (Human), UniProt Q14004); settings: read-out: Percent Control at 100 nM Compound Concentration
From the text: (§1) The screening method uses an immobilized ligand on a solid support, a DNA-tagged kinase, and a test compound. Test compounds that bind the kinase active site and directly (sterically) or indirectly (allosterically) prevent kinase binding to an immobilized ligand on a solid support will reduce the amount of kinase captured on the solid support. […] Screening “hits” are identified by measuring the amount of kinase captured in test compound versus control samples by using a quantitative, precise and ultra-sensitive qPCR method that detects the DNA label associated with the kinase. In a similar manner, dissociation constants (Kd) for test compound-kinase interactions are calculated by measuring the amount of kinase captured on the solid support as a function of the test compound concentration.
(§2) For most assays, kinase-tagged T7 phage strains were grown in parallel in 24-well blocks in an E. coli host derived from the BL21 strain. E. coli were grown to log-phase and infected with T7 phage from a frozen stock (multiplicity of infection=0.4) and incubated with shaking at 32° C. until lysis (90-150 minutes). The lysates were centrifuged (6,000×g) and filtered ([…]) to remove cell debris. The remaining kinases were produced in HEK-293 cells and subsequently tagged with DNA for qPCR detection. Streptavidin-coated magnetic beads were treated with biotinylated small molecule ligands for 30 minutes at room temperature to generate affinity resins for kinase assays. The liganded beads were blocked with excess biotin and washed with blocking buffer (SeaBlock (Pierce), 1% BSA, 0.05% Tween 20, 1 mM DTT) to remove unbound ligand and to reduce non-specific phage binding. […] Test compounds were prepared as 40× stocks in 100% DMSO and directly diluted into the assay. All reactions were performed in polypropylene 384-well plates in a final volume of 0.02 mL. […] The kinase concentration in the eluates was measured by qPCR.
(§3) The compounds were screened at 100 nM concentration, and results for the binding interactions are shown below in Table D as percent control, where lower numbers indicate stronger hits. The calculation for percent control is shown below. The negative control was DMSO (100% control), and a control compound was used as positive control (0% control).

[14] = target: PFCDPK1(P.falciparum) (Plasmodium falciparum (isolate 3D7), UniProt P62344); settings: read-out: Percent Control at 100 nM Compound Concentration
From the text: as §1, §2, §3

[15] = target: PFPK5(P.falciparum) (Plasmodium falciparum (isolate 3D7), UniProt P61075); settings: read-out: Percent Control at 100 nM Compound Concentration
From the text: as §1, §2, §3

[16] = target: PRP4 (Homo sapiens (Human), UniProt Q13523); settings: read-out: Percent Control at 100 nM Compound Concentration
From the text: as §1, §2, §3

[17] = target: PHKG2 (Homo sapiens (Human), UniProt P15735); settings: read-out: Percent Control at 100 nM Compound Concentration
PHKG2, sequence (P15735 whole entry): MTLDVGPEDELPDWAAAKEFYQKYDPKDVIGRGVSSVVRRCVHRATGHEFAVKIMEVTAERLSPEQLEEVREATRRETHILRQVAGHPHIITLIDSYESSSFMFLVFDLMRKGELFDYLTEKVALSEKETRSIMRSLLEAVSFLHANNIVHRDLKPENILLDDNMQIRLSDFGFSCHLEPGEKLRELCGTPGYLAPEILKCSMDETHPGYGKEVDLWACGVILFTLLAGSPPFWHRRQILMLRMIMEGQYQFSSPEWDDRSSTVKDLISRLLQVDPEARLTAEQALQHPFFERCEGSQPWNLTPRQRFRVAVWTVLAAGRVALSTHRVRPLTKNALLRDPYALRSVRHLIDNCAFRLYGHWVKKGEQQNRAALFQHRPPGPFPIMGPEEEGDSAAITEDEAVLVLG

[18] = target: PIK3CA(E545K) (Homo sapiens (Human), UniProt P42336, E545K); settings: read-out: Percent Control at 100 nM Compound Concentration
PIK3CA(E545K), sequence (P42336 whole entry E545K): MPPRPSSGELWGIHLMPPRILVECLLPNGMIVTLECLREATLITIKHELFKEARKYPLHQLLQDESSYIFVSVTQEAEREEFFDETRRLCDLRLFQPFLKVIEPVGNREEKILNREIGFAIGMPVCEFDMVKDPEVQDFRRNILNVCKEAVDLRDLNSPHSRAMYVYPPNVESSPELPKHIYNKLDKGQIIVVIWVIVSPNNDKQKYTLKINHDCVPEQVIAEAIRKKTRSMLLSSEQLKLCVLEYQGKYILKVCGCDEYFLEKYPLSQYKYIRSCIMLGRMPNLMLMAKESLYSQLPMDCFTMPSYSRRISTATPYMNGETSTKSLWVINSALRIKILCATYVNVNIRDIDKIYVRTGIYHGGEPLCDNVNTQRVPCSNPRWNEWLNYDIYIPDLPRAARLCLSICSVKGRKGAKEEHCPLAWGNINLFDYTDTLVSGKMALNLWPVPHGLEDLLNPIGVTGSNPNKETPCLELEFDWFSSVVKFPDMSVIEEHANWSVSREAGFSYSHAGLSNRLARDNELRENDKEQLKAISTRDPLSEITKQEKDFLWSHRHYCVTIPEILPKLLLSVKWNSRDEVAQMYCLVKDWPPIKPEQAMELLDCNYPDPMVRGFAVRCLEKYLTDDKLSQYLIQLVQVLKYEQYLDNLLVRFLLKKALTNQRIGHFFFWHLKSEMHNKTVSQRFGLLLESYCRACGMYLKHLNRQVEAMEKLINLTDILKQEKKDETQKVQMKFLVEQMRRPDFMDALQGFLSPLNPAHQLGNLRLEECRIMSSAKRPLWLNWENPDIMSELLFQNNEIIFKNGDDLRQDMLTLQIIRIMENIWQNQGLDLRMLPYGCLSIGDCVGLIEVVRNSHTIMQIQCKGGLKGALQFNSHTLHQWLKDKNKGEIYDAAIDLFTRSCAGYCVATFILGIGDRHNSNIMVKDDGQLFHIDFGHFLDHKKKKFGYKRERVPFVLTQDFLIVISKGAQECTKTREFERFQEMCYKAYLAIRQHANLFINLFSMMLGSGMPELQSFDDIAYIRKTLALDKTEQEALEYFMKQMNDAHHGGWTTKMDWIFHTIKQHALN

[19] = target: S6K1 (Homo sapiens (Human), UniProt P23443); settings: read-out: Percent Control at 100 nM Compound Concentration
S6K1, sequence (P23443 whole entry): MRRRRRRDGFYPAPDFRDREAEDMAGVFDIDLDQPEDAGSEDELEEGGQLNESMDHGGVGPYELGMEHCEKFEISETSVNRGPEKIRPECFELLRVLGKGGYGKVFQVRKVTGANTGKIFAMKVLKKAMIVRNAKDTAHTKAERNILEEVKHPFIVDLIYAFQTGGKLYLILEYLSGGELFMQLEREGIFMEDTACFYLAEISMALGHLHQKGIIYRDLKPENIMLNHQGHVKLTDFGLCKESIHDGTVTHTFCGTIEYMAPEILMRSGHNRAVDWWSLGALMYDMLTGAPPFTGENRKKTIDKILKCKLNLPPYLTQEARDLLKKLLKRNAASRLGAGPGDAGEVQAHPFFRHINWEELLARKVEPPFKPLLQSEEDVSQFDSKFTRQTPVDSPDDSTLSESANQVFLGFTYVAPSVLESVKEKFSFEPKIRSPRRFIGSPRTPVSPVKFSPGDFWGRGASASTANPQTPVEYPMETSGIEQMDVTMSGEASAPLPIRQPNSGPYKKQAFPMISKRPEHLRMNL

[20] = target: SgK110 (Homo sapiens (Human), UniProt P0C264); settings: read-out: Percent Control at 100 nM Compound Concentration
SgK110, sequence (P0C264 whole entry): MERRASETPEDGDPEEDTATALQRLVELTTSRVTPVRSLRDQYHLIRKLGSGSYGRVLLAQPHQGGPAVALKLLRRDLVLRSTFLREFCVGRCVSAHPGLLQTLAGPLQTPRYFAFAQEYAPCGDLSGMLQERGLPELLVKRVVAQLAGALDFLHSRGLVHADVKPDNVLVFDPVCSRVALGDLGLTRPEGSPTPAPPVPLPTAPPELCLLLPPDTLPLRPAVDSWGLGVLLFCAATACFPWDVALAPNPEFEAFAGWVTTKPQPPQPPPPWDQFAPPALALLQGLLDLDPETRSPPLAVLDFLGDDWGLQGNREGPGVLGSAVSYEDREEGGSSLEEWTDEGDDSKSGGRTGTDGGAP

[21] = target: TAOK1 (Homo sapiens (Human), UniProt Q7L7X3); settings: read-out: Percent Control at 100 nM Compound Concentration
TAOK1, sequence (Q7L7X3 whole entry): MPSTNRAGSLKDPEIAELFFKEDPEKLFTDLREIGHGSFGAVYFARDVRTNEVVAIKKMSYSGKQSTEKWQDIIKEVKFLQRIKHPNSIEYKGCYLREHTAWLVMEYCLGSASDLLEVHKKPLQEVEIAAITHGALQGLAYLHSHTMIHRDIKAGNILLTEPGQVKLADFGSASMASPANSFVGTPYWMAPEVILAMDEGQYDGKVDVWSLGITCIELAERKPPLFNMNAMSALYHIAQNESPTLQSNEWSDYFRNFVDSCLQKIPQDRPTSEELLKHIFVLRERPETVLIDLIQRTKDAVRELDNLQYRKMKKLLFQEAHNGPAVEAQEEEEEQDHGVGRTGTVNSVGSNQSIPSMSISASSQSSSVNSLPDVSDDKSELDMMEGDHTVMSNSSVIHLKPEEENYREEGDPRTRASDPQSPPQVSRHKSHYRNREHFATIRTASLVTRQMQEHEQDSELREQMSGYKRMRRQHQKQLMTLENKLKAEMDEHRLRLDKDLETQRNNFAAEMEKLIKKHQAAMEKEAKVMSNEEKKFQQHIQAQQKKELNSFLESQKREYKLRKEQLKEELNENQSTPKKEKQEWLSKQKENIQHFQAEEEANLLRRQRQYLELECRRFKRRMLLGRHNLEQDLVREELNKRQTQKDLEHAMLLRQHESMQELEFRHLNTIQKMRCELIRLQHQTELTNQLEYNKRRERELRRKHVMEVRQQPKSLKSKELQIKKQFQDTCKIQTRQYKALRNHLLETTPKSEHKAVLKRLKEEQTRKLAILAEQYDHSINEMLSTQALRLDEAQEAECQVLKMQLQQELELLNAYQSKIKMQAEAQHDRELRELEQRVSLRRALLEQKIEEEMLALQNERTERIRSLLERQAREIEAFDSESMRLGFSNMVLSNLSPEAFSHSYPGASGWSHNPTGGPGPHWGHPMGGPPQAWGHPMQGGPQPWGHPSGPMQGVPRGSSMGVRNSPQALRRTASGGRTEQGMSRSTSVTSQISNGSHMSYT

[22] = target: ZAK (Homo sapiens (Human), UniProt Q9NYL2); settings: read-out: Percent Control at 100 nM Compound Concentration

CN(C[C@@H](O)Cc1ccccc1)C(=O)c1cncc(C#Cc2cnn(C(F)F)c2)c1 [Example 2, (S)-5-((1-(difluoromethyl)-1H-pyrazol-4-yl)ethynyl)-N-(2-hydroxy-3-phenylpropyl)-N-methylnicotinamide] showed a remaining activity at 0.1 µM ([1]; ABL1(H396P)-nonphosphorylated) of 88%, a remaining activity at 0.1 µM ([2]; ACVR1B) of 100% and a remaining activity at 0.1 µM ([3]; CAMKK1) of 100%. For the same compound, the remaining activity at 0.1 µM ([4]; CAMKK2) was 99%, the remaining activity at 0.1 µM ([5]; CDK7) was 100% and the remaining activity at 0.1 µM ([6]; FGR) was 100%. For the same compound, the “Percent Control at 100 nM Compound Concentration” value [7] was 98%, the remaining activity at 0.1 µM ([8]; KIT(A829P)) was 100% and the remaining activity at 0.1 µM ([9]; MAP3K4) was 100%. It also gave a remaining activity at 0.1 µM ([10]; MLCK) of 100%, a remaining activity at 0.1 µM ([11]; PAK6) of 85% and a remaining activity at 0.1 µM ([12]; PCTK3) of 100%. For the same compound, the remaining activity at 0.1 µM [13] was 100%, the remaining activity at 0.1 µM [14] was 95% and the remaining activity at 0.1 µM [15] was 90%. For the same compound, the remaining activity at 0.1 µM [16] was 89%, the remaining activity at 0.1 µM ([17]; PHKG2) was 100% and the remaining activity at 0.1 µM ([18]; PIK3CA(E545K)) was 91%. The remaining activity at 0.1 µM ([19]; S6K1) was 95%, the remaining activity at 0.1 µM ([20]; SgK110) was 81% and the remaining activity at 0.1 µM ([21]; TAOK1) was 100%. It also gave a remaining activity at 0.1 µM ([22]; ZAK) of 100%.
Work on CN(C[C@H](Cc1ccccc1)OP(=O)(O)O)C(=O)c1cncc(C#Cc2cnn(C(F)F)c2)c1 [Example 19, (S)-1-(5-((1-(difluoromethyl)-1H-pyrazol-4-yl)ethynyl)-N-methylnicotinamido)-3-phenylpropan-2-yl dihydrogen phosphate] yielded a remaining activity at 0.1 µM [1] of 96%, a remaining activity at 0.1 µM [2] of 100% and a remaining activity at 0.1 µM [3] of 100%. It also gave a remaining activity at 0.1 µM [4] of 100%, a remaining activity at 0.1 µM [5] of 100% and a remaining activity at 0.1 µM [6] of 99%. The “Percent Control at 100 nM Compound Concentration” value [7] was 97%, the remaining activity at 0.1 µM [8] was 99% and the remaining activity at 0.1 µM [9] was 100%. The remaining activity at 0.1 µM [10] was 100%, the remaining activity at 0.1 µM [11] was 80% and the remaining activity at 0.1 µM [12] was 100%. For the same compound, the remaining activity at 0.1 µM [13] was 100%, the remaining activity at 0.1 µM [14] was 96% and the remaining activity at 0.1 µM [15] was 100%. For the same compound, the remaining activity at 0.1 µM [16] was 82%, the remaining activity at 0.1 µM [17] was 100% and the remaining activity at 0.1 µM [18] was 85%. The remaining activity at 0.1 µM [19] was 95%, the remaining activity at 0.1 µM [20] was 77% and the remaining activity at 0.1 µM [21] was 100%. For the same compound, the remaining activity at 0.1 µM [22] was 100%.
